Test results as given in patent US20120238488A1, “COMPOUNDS AND METHODS FOR TREATING NEOPLASIA” (priority 2009, published 2012).

Legend:
T470 (Breast) = assay: SRB assay, T470; assay type: cell-based, human; conditions: 48 h
Protocol: SRB assays were performed according to standard National Cancer Institute Guidelines. Briefly, human tumor cells from different cancer panels were seeded into 96 well plates in 100 μL (plating densities ranging from 5-40,000 cells/well depending on the doubling time of individual cell lines) in serum-containing media for twenty-four hours prior to the addition of the compounds to be assayed. After 24 hours, one plate of each cell line was fixed in situ with trichloroacetic acid (TCA). The fixed slides were used to determine the cell population for each cell line at the time of drug addition (Tz). Each compound to be tested was solubilized in DMSO and the desired concentration was then added to the medium and diluted serially 1:10 to provide a total of five or ten drug concentrations plus control (in a final volume of 200 μL). The starting dose before any dilution was 100 uM for all compounds.
Following drug addition, each culture was incubated for forty-eight hours. The assay was terminated with the addition of cold TCA. The supernatant was discarded, and the plates were washed with tap water and air dried. Sulforhodamine B (SRB) solution was then added to each well. After staining, the bound stain was solubilized and the absorbance was read on an automated plate reader at a wavelength of 515 nm.
Using the absorbance measurements [time zero, (Tz), control growth, (C), and test growth in the presence of drug at the ten concentration levels (Ti)], the percentage growth was calculated at each of the drug concentrations levels. Percentage growth inhibition was calculated as:
[(Ti−Tz)/(C−Tz)]×100 for concentrations for which Ti>/=Tz […]
Three dose response parameters were calculated for each experimental agent. […] The drug concentration resulting in total growth inhibition (TGI) was calculated from Ti=Tz. […]
Values were calculated for each of these three parameters when the level of activity was reached; however, if the effect was not reached or was exceeded, the value for that parameter was expressed as greater or less than the maximum or minimum concentration tested. […]

[1] = tested on: PC-3 xenografts (prostate adenocarcinoma, grade IV); assay: PC-3 xenograft anti-tumor activity
Protocol: Compound 56 was tested for its anti-tumor activity in PC-3 and A549 xenografts. To generate xenografts in mice, exponentially growing cultures of approximately 10^6 PC-3 cells (prostate adenocarcinoma, grade IV) or A549 cells (lung carcinoma) were injected subcutaneously according to the British practice of bilateral trocar implants at the axillary region of 6-8 weeks old male (PC-3 cells) or female (A549 cells) Nod/Scid mice. The two tumor cell inoculums were added together for each mouse, thus producing a tumor burden per mouse value for data analysis. The advantage of the British system is reduced mouse-to-mouse variability and, thus, the ability to decrease the total number of animals per group, with five or six being sufficient for accurate data analysis of tumor response and evaluation of toxicities.
Tumor volume was calculated according to the formula [(axb2)/2], where a=length and b=width of the tumor as measured with a vernier's caliper (measurements were performed twice a week). All administrations were intraperitoneal. Treated animals received a single injection according to the schedule described for each study (see below). In addition to tumor volume, the parameter, % DT/DC, was calculated, where DT=T−Do and DC=C−Do (Do is the average tumor volume at the beginning of the treatment; T and C are the volumes of treated and untreated tumors, respectively, at a specified day). Optimal DT/DC value was used as a measure of drug activity. Losses of weight, neurological disorders and behavioral and dietary changes were also recorded as indicators of toxicity (side effects). The experiment was terminated when tumor size in untreated animals reached a volume of about 1000-1500 mm^3. All animals were treated according to Greek laws (2015/92), guidelines of the European Union and the European council (86/609 and ETS123, respectively), and Compliance with Standards for Human Care and Use of Laboratory Animals, NIH, USA (Assurance No. A5736-01).
In order to develop PC-3 xenografts, male mice 6-8 weeks old were inoculated bilateral at the two axilla regions at day 0.
Compound 56 was administered intraperitoneallly at the following dpis: d13, d14, d15, d16, d17, d20, d21, d22, d23, d24, d27, d28, 29, d30.

Row | SMILES | CC50 (T470 (Breast); Homo sapiens, read-out: LC50) | GI50 (T470 (Breast); Homo sapiens, T470, SRB) | TGI (T470 (Breast); T470, SRB) | post mortem analysis on excised PC-3 tumors: tumor growth inhibition ([1]; 17 mgk intraperitoneal) | toxicity (body weight, deaths) ([1]; PC-3 xenograft mice, compound 56 17 mgk, digoxin 2 mgk, intraperitoneal) | metastases versus control group (post mortem) ([1]; PC-3 xenografts, 17 mgk intraperitoneal) | optimal DT/DC ([1]; PC-3 xenografts, 17 mgk intraperitoneal, day 34, p=6×10^−6) | anti-tumor activity in PC-3 xenografts (FIG. 2A) ([1]; mouse, in vivo)
1 | C[C@]12CCC(=NOCCN)C=C1CCC1C2CC[C@]2(C)C(=O)CCC12 (stereo partly drawn) [Compound 12, (10R,13S)-3-(2-aminoethoxyimino)-10,13-dimethyl-2,3,7,8,9,10,11,12,13,14,15,16-dodecahydro-1H-cyclopenta[a]phenanthren-17(6H)-one] | 69.6 µM | 5.98 µM | 26.42 µM | – | – | – | – | –
2 | C[C@]12CCC(=NOC3CCNC3)CC1CCC1C2CC[C@]2(C)C(=O)CCC12 (stereo partly drawn) [Compound 56, (10S,13S)-10,13-dimethyl-3-(pyrrolidin-3-yloxyimino)tetradecahydro-1H-cyclopenta[a]phenanthren-17(2H)-one] | – | – | – | statistical significant tumor growth inhibition | not toxic | suppression of bone lymph node and front axilla metastases | 48.71% | has anti-tumor activities
